{"source": "patent US8779142B2", "about": "“Azabicyclo compound and salt thereof” (Taiho Pharmaceutical Co., Ltd., priority 2009, dated 2014)", "key": {"[1]": {"target": "human HSP90 alpha protein (HSP90 N-terminal protein, amino acids 2-236) (Homo sapiens (Human), UniProt P07900)", "assay": "Measurement of HSP90-binding activity (AlphaScreen competitive assay, biotin-labeled geldanamycin)", "conditions": "concentration inhibiting binding of biotin-labeled geldanamycin (40 nM) to purified HSP90 to 50% of control; read-out: HSP-binding activity IC50"}, "SK-BR-3 cells": {"system": "SK-BR-3 cells", "assay": "Measurement of cell growth inhibition (crystal violet staining method)", "type": "cell-based", "conditions": "Homo sapiens"}, "[2]": {"conditions": "breast cancer SK-BR-3 cells, 72 hr culture with test substance"}}, "data": [{"smiles": "CC(C)c1nn(-c2ccc(C(N)=O)c(NC3CCN(C(=O)c4cc(O)nc(O)n4)CC3)c2)c2nccc(-c3cnc4ccccc4c3)c12", "note": "[Example 78, 2-{1-(2,6-Dihydroxypyrimidine-4-carbonyl)piperidin-4-ylamino}-4-{3-isopropyl-4-(quinolin-3-yl)-1H-pyrazolo[3,4-b]pyridin-1-yl}benzamide]", "values": [{"measurement": "IC50", "setting": "[1]", "result": 360, "unit": "nM"}, {"measurement": "IC50", "setting": "SK-BR-3 cells; [2]", "result": 650, "unit": "nM"}]}, {"smiles": "CC(C)c1nn(-c2ccc(C(N)=O)c(NCCN3CCOCC3)c2)c2nccc(-c3cnc4ccccc4c3)c12", "note": "[Example 31, 4-{3-Isopropyl-4-(quinolin-3-yl)-1H-pyrazolo[3,4-b]pyridin-1-yl}-2-(2-morpholinoethylamino)benzamide]", "values": [{"measurement": "IC50", "setting": "[1]", "result": 330, "unit": "nM"}, {"measurement": "IC50", "setting": "SK-BR-3 cells; [2]", "result": 100, "unit": "nM"}]}, {"smiles": "NCC(=O)O[C@H]1CC[C@H](Nc2cc(-n3cc(C(F)(F)F)c4c(-c5cnc6ccccc6c5)ccnc43)ccc2C(N)=O)CC1", "note": "[Example 44, Trans-4-{2-carbamoyl-5-{4-(quinolin-3-yl)-3-(trifluoromethyl)-1H-pyrrolo[2,3-b]pyridin-1-yl}phenylamino}cyclohexyl-2-aminoacetate dimethanesulfonate]", "values": [{"measurement": "IC50", "setting": "[1]", "result": 130, "unit": "nM"}, {"measurement": "IC50", "setting": "SK-BR-3 cells; SK-BR-3, 72 h", "result": 10, "unit": "nM"}]}, {"smiles": "COc1cc(C(N)=O)ccc1-n1nc(C(C)C)c2c(-n3cnc(-c4cccnc4)c3)ccnc21", "note": "[Example 142, 4-{3-Isopropyl-4-(4-(pyridin-3-yl)-1H-imidazol-1-yl)-1H-pyrazolo[3,4-b]pyridin-1-yl}-3-methoxybenzamide]", "values": [{"measurement": "IC50", "setting": "[1]", "result": 120, "unit": "nM"}, {"measurement": "IC50", "setting": "SK-BR-3 cells; [2]", "result": 220, "unit": "nM"}]}, {"smiles": "CC(C)c1cc(C(N)=O)ccc1-n1nc(C(C)C)c2c(-n3cnc(-c4cnn(C)c4)c3)ccnc21", "note": "[Example 104, 3-Isopropyl-4-{3-isopropyl-4-(4-(1-methyl-1H-pyrazol-4-yl)-1H-imidazol-1-yl)-1H-pyrazolo[3,4-b]pyridin-1-yl}benzamide]", "values": [{"measurement": "IC50", "setting": "[1]", "result": 120, "unit": "nM"}, {"measurement": "IC50", "setting": "SK-BR-3 cells; [2]", "result": 200, "unit": "nM"}]}]}
